Data: patent publication US20230271954A1 (Gossamer Bio Services, Inc., priority 2020, published 2023)

Legend:
DGKζ = target: T1, DGKζ (Homo sapiens, UniProt Q13574); assay: DGKζ biochemical assay (ADP-Glo); details: read-out: DGK ζ IC50
T1 construct: purchased Carna 12-110
Protocol: (§1) Compounds of the present invention were prepared into 10 mM DMSO solution and 10 nL of stock was transferred into 384 plates (Optiplate 384 plate) using Echo550. DMSO was used as high control, and ATP substrate buffer was used as a low control. A 1× enzyme assay buffer was prepared (Hepes, pH 7.0 25 mM, BSA 0.05%, Triton-X100 0.002%, CaCl2) 1 μM, MgCl2 10 mM, DTT 2 mM). […] OAG (1-oleoyl-2-acetyl-sn-glycerol, 25 mg/ml, Avanti 8001000) and PS (10 mg/ml, Avanti 840032P) were mixed at the ratio of 1:2. A 1× substrate solution was prepared with 1× assay buffer by 100-fold dilution. The substrate solution was sonicated on ice for 1 min. The pure ATP was added to the substrate solution (DGKα:400 μM). 5 μL of the enzyme solution were added to the 384 well plate, and the plate was spun for 1 min at 1000 rpm and incubated for 30 mins at RT. 5 μL of 1× substrate solution were added to the 384 well plate, the plate was spun and then incubated for 45 mins at RT. 10 μL ADP-Glo […] was added to stop the assay. After 60 mins at RT, 20 μL ADP-Glo Detection buffer was added as the final step. Plate was read after 45 min incubation at RT.
(§2) Data analysis was performed by calculating the […] using following the formula:
(§3) [formula] • High control (Hc): DMSO/DGKα(DGKζ)/Substrate/ATP/ADP-Glo • Low Control (Lc): ATP/ADP-Glo

DGKα = DGKα (Homo sapiens, UniProt P23743); assay: DGKα biochemical assay (ADP-Glo); details: read-out: DGK α IC50
DGKα, sequence (P23743 whole entry): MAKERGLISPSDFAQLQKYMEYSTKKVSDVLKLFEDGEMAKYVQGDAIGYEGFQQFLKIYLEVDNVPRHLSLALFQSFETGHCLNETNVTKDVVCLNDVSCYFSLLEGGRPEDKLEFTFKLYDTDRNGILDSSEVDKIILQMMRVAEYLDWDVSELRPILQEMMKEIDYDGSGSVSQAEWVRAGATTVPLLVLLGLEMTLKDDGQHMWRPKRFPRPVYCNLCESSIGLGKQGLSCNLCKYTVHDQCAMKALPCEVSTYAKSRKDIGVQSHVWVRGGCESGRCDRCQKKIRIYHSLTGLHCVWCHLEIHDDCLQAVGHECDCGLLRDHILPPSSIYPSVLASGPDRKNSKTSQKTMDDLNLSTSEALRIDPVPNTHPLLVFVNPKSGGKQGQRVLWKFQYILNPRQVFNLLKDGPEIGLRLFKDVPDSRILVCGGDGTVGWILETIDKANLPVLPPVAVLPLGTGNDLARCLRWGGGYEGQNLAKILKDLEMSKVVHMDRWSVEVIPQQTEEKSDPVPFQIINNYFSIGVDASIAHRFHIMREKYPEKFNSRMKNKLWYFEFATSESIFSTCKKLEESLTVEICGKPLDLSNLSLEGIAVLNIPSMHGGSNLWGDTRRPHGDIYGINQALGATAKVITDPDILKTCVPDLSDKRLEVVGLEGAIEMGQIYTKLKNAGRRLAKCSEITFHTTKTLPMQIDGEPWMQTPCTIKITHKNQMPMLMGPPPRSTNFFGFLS
Protocol: as §1, §2, §3

T1 sequence (Q13574 1-929 isoform Q13574-4): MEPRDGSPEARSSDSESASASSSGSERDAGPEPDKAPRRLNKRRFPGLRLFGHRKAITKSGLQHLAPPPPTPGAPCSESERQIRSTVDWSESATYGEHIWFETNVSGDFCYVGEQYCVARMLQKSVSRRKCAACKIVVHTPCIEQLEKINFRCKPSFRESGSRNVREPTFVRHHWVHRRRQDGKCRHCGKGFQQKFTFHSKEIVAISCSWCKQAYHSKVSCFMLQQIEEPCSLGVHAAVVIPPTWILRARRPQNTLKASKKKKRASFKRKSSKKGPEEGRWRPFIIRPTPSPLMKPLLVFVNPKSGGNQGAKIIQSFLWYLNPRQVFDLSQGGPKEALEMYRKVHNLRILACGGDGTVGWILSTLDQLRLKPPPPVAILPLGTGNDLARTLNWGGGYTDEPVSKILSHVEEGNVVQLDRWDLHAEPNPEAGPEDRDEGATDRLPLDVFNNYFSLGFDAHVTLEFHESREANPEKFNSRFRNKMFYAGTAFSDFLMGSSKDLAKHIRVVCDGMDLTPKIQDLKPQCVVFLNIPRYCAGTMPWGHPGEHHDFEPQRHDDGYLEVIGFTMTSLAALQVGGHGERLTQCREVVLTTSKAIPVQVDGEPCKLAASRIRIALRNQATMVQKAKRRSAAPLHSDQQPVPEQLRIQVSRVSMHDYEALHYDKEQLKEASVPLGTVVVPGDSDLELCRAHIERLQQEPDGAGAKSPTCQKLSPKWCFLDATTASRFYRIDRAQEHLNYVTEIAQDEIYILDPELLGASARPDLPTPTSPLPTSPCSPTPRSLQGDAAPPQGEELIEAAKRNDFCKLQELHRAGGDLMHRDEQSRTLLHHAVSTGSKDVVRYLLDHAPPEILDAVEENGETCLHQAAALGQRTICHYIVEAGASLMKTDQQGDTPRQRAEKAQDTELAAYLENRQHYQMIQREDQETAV

Row | IC50 (DGKζ) | IC50 (DGKα) | SMILES
1 | ≥ 1000 nM | 10 to 100 nM | Cn1c(=O)c(C#N)c(N(C)[C@H]2CC[C@H](N(c3ccc(F)cc3O)C3CC3)CC2)c2nc(Cl)ccc21 [Example 3G, trans-6-chloro-4-((4-(cyclopropyl(4-fluoro-2-hydroxyphenyl)amino)cyclohexyl)(methyl)amino)-1-methyl-2-oxo-1,2-dihydro-1,5-naphthyridine-3-carbonitrile]
2 | 100 to 1000 nM | < 10 nM | Cn1c(=O)c(F)c(N(C)[C@H]2CC[C@@H](N(CC3COCCO3)c3ccc(F)cc3)CC2)c2nc(C#N)ccc21 (stereo partly drawn) [Example 203, cis-8-((-4-(((1,4-dioxan-2-yl)methyl)(4-fluorophenyl)amino)cyclohexyl)(methyl)amino)-7-fluoro-5-methyl-6-oxo-5,6-dihydro-1,5-naphthyridine-2-carbonitrile]
3 | 100 to 1000 nM | 100 to 1000 nM | Cn1c(=O)c(C#N)c(N(C)[C@H]2CC[C@H](N(CC3CC3)c3cc(F)cc(F)c3)CC2)c2nc(C#N)ccc21 [Example 86]
4 | 100 to 1000 nM | ≥ 1000 nM | Cc1ccccc1N(CC1CC1)[C@H]1CC[C@H](N(C)c2cc(=O)n(C)c3ccc(C#N)nc23)CC1 [Example 70, trans-8-((4-((cyclopropylmethyl)(o-tolyl)amino)cyclohexyl)(methyl)amino)-5-methyl-6-oxo-5,6-dihydro-1,5-naphthyridine-2-carbonitrile]
5 | 10 to 100 nM | 10 to 100 nM | Cc1cc(N(CC2CCOC2)[C@H]2CC[C@@H](N(C)c3c(C#N)c(=O)n(C)c4ccc(C#N)nc34)CC2)ccc1F (stereo partly drawn) [Example 159, cis-8-((-4-((4-fluoro-3-methylphenyl) ((tetrahydrofuran-3-yl)methyl)amino)cyclohexyl) (methyl)amino)-5-methyl-6-oxo-5,6-dihydro-1,5-naphthyridine-2,7-dicarbonitrile]
6 | 100 to 1000 nM | ≥ 1000 nM | COc1cc(N(CC2CC2)[C@H]2CC[C@H](N(C)c3c(C#N)c(=O)n(C)c4ccc(C#N)nc34)CC2)cc(F)c1F [Example 77]
7 | 100 to 1000 nM | 10 to 100 nM | Cn1c(=O)c(C#N)c(N(C)[C@H]2CC[C@H](N(CC3CC3)c3ccc(F)cn3)CC2)c2nc(Cl)ccc21 [Example 3L, trans-6-chloro-4-((4-((cyclopropylmethyl)(5-fluoropyridin-2-yl)amino)cyclohexyl)(methyl)amino)-1-methyl-2-oxo-1,2-dihydro-1,5-naphthyridine-3-carbonitrile]
8 | ≥ 1000 nM | 100 to 1000 nM | CC(C)CN(c1ccc(F)cc1)[C@H]1CC[C@@H](N(C)c2c(C#N)c(=O)n(C)c3ccc(Cl)nc23)CC1 [Example 48, cis-6-chloro-4-((-4-((4-fluorophenyl)(isobutyl)amino)cyclohexyl)(methyl)amino)-1-methyl-2-oxo-1,2-dihydro-1,5-naphthyridine-3-carbonitrile]
9 | 100 to 1000 nM | ≥ 1000 nM | COc1cc(N(CC2CC2)[C@H]2CC[C@H](N(C)c3cc(=O)n(C)c4ccc(C#N)nc34)CC2)cc(F)c1F [Example 95]
10 | 10 to 100 nM | 10 to 100 nM | Cn1c(=O)c(C#N)c(N(C)[C@H]2CC[C@@H](N(C[C@@H]3CCCOC3)c3ccc4c(c3)OCO4)CC2)c2nc(C#N)ccc21 [Example 142, cis-8-((-4-(benzo[d][1,3]dioxol-5-yl(((S)-tetrahydro-2H-pyran-3-yl)methyl)amino)cyclohexyl)(methyl)amino)-5-methyl-6-oxo-5,6-dihydro-1,5-naphthyridine-2,7-dicarbonitrile]
11 | 100 to 1000 nM | 100 to 1000 nM | Cn1c(=O)c(C#N)c(N(C)[C@H]2CC[C@H](N(CC3COCCO3)c3ccc(F)cc3)CC2)c2nc(C#N)ccc21 (stereo partly drawn) [Example 149, trans-8-((-4-(((1,4-dioxan-2-yl)methyl)(4-fluorophenyl)amino)cyclohexyl)(methyl)amino)-5-methyl-6-oxo-5,6-dihydro-1,5-naphthyridine-2,7-dicarbonitrile]
12 | 100 to 1000 nM | 100 to 1000 nM | Cc1cc(N(CC2CCC2)[C@H]2CC[C@H](N(C)c3c(C#N)c(=O)n(C)c4ccc(C#N)nc34)CC2)ccc1F [Example 126, trans-8-((-4-((cyclobutylmethyl)(4-fluoro-3-methylphenyl)amino)cyclohexyl)(methyl)amino)-5-methyl-6-oxo-5,6-dihydro-1,5-naphthyridine-2,7-dicarbonitrile]
13 | 10 to 100 nM | < 10 nM | Cn1c(=O)c(C#N)c(N(C)[C@H]2CC[C@@H](N(CC3CCC3)c3ccc4c(c3)OCO4)CC2)c2nc(C#N)ccc21 [Example 97]
14 | ≥ 1000 nM | 100 to 1000 nM | COc1cccc(N(CC2CC2)[C@H]2CC[C@@H](N(C)c3c(C#N)c(=O)n(C)c4cccnc34)CC2)c1 [Example 15, cis-4-((4-((cyclopropylmethyl)(3-methoxyphenyl)amino)cyclohexyl)(methyl)amino)-1-methyl-2-oxo-1,2-dihydro-1,5-naphthyridine-3-carbonitrile]
15 | 100 to 1000 nM | < 10 nM | Cn1c(=O)cc(N(C)[C@H]2CC[C@@H](N(c3ccc(F)cc3)C3CC3)CC2)c2nc(C#N)ccc21 [Example 49, cis-8-((4-(cyclopropyl(4-fluorophenyl)amino)cyclohexyl)(methyl)amino)-5-methyl-6-oxo-5,6-dihydro-1,5-naphthyridine-2-carbonitrile]
16 | ≥ 1000 nM | 100 to 1000 nM | CN1C(=O)COc2ccc(N(CC3CC3)[C@H]3CC[C@@H](N(C)c4cc(=O)n(C)c5ccc(C#N)nc45)CC3)cc21 [Example 197, cis-8-((4-((cyclopropylmethyl)(4-methyl-3-oxo-3,4-dihydro-2H-benzo[b][1,4]oxazin-6-yl)amino)cyclohexyl)(methyl)amino)-5-methyl-6-oxo-5,6-dihydro-1,5-naphthyridine-2-carbonitrile]
17 | 100 to 1000 nM | 100 to 1000 nM | Cn1c(=O)cc(N(C)[C@H]2CC[C@H](N(c3ccccc3)C3CC3)CC2)c2nc(C#N)ccc21 [Example 3T, trans-8-((4-(cyclopropyl(phenyl)amino)cyclohexyl)(methyl)amino)-5-methyl-6-oxo-5,6-dihydro-1,5-naphthyridine-2-carbonitrile]
18 | ≥ 1000 nM | 100 to 1000 nM | Cn1c(=O)c(C#N)c(N(C)[C@H]2CC[C@H](N(CC3COC3)c3ccc(F)cc3O)CC2)c2nc(Cl)ccc21 [Example 3O, trans-6-chloro-4-((4-((4-fluoro-2-hydroxyphenyl)(oxetan-3-ylmethyl)amino)cyclohexyl)(methyl)amino)-1-methyl-2-oxo-1,2-dihydro-1,5-naphthyridine-3-carbonitrile]
19 | 100 to 1000 nM | 10 to 100 nM | Cn1c(=O)c(C#N)c(N(C)[C@H]2CC[C@@H](N(C[C@H]3CCOC3)c3ccc(F)cc3)CC2)c2nc(C#N)ccc21 [Example 66]
20 | ≥ 1000 nM | ≥ 1000 nM | Cc1[nH]c2ccccc2c1C(=O)N[C@H]1CC[C@H](N(CC2COC2)c2ccccc2)CC1 [Example 4C, trans-2-Methyl-N-(4-((oxetan-3-ylmethyl)(phenyl)amino)cyclohexyl)-1H-indole-3-carboxamide]
21 | ≥ 1000 nM | 100 to 1000 nM | COc1cc(N(C2CC2)[C@H]2CC[C@H](N(C)c3cc(=O)n(C)c4ccc(C#N)nc34)CC2)ccc1F [Example 93]
22 | ≥ 1000 nM | 10 to 100 nM | Cn1c(=O)c(C#N)c(N(C)[C@H]2CC[C@H](N(CC3CCOC3)c3ccc(F)cc3)CC2)c2nc(C#N)ccc21 (relative stereo) [Example 56, trans-8-((4-((4-fluorophenyl)((tetrahydrofuran-3-yl)methyl)amino)cyclohexyl)(methyl)amino)-5-methyl-6-oxo-5,6-dihydro-1,5-naphthyridine-2,7-dicarbonitrile]
23 | 10 to 100 nM | 100 to 1000 nM | Cc1cc(F)ccc1N(CC1CC(F)(F)C1)[C@H]1CC[C@@H](N(C)c2cc(=O)n(C)c3ccc(C#N)nc23)CC1 [Example 184, cis-8-((-4-(((3,3-difluorocyclobutyl)methyl)(4-fluoro-2-methylphenyl)amino)cyclohexyl)(methyl)amino)-5-methyl-6-oxo-5,6-dihydro-1,5-naphthyridine-2-carbonitrile]
24 | ≥ 1000 nM | 10 to 100 nM | CN(c1c(C#N)c(=O)n(C)c2ccc(C#N)nc12)C1CCC(N(CC2CCC2)c2ccc(CN3CCOCC3)cc2)CC1 (single isomer, unassigned) [Example 190, (cis or trans)-8-((4-((cyclobutylmethyl)(4-(morpholinomethyl)phenyl)amino)cyclohexyl) (methyl)amino)-5-methyl-6-oxo-5,6-dihydro-1,5-naphthyridine-2,7-dicarbonitrile]
25 | ≥ 1000 nM | 100 to 1000 nM | CN1C(=O)CN([C@H]2CC[C@@H](N(CC3CC3)c3ccccc3)CC2)c2nc(C#N)ccc21 [Example 2C, cis-4-[4-[N-(Cyclopropylmethyl)anilino]cyclohexyl]-1-methyl-2-oxo-3H-pyrido[2,3-b]pyrazine-6-carbonitrile]
